Measured values published in patent US20030068615A1, “Polypeptides that bind HIV gp120 and related nucleic acids, antibodies, compositions, and methods of use” (priority 1999, published 2003).
Where “and” joins values, the source holds several entries; their conditions need not be identical. Equal entries are not always repeated. Where two headings read alike, the source gives them in different places.

Molecular target: HIV-1LAI envelope gp120 (Human immunodeficiency virus type 1 group M subtype B, UniProt P03377)
Assay type: binding
Settings: for number of radioactive decays (counts) counted: human CD4 21-mer scan, empty control 2075; for Counts per 20′ Average-background: CCR5 18-mer scan; for Relative % of Control: mean of two syntheses and binding experiments ± average deviation, wild-type = 100%
[1] = radiolabeled HIV-1LAI gp120, background subtracted
[2] = Panel B, 15-mers and 18-mers of CD4, empty control 575
[3] = Panel G, alanine replacements and serial truncations (Z) of CD4 polypeptides, empty control 580
[4] = Panel C, 15-mers and 18-mers of CD4, empty control 556
[5] = CXCR4 18-mer scan, background subtracted, empty control 0
[6] = CXCR4 18-mer scan, empty control 412
[7] = Panel A, 21-mers of CD4, empty control 515 and 617
[8] = Panel D, 9-mers and 12-mers of CD4, empty control […]
[9] = Panel E, 9-mers and 12-mers of CD4, empty control 571
[10] = STRL33 18-mer scan, background subtracted, first of two count columns
[11] = STRL33 18-mer scan, background subtracted, second of two count columns
[12] = Panel F, sequential alanine replacements of CD4 polypeptides, duplicate series, empty control 569

## LNPEAGMWQCLLSDSGQVLLE [human CD4 361-381]
  number of radioactive decays (counts) counted: 6316 counts

## GLNNCSSSNRLDQAMQVT [CCR5 segment 265-]
[1]
  Counts per 20′ Average-background: −31 counts per 20′

## EDQKEEVQLLVFGLT
[2]
  COUNTS of radiolabeled gp120 retained: 3633 counts

## GEQVEFSAPLAFTVE
[3]
  COUNTS of radiolabeled gp120 retained: 7767 counts and 7378 counts

## QVEFSFPLAFTVEKLTGS
[4]
  COUNTS of radiolabeled gp120 retained: 736 counts

## PKLMLSLKLENKEAKVSKREK [human CD4 336-356]
  number of radioactive decays (counts) counted: 1656 counts

## SRGSSLKILSKGKRGGHS [CXCR4 segment 321-338]
[5]
  radioactive counts recorded in twenty minutes: 169 counts
[6]
  radioactive counts recorded in twenty minutes: 581 counts

## QKASSIVYKKEGEQVEFSFPL
[7]
  COUNTS of radiolabeled gp120 retained: 24959 counts

## GEQVEFSFALAFTVE
[3]
  COUNTS of radiolabeled gp120 retained: 20480 counts and 19480 counts

## MEGISIYASDNYTEEDGS
CXCR4 (1-18) alanine variants
  Relative % of Control: 97 ± 10%

## DQGNFPLII
[8]
  COUNTS of radiolabeled gp120 retained: 662 counts

## KASSIVYKK
[9]
  COUNTS of radiolabeled gp120 retained: 498 counts

## LTANSDTHLLQGQSL
[2]
  COUNTS of radiolabeled gp120 retained: 634 counts

## TYICEVEDQKEEVQLLVF
[2]
  COUNTS of radiolabeled gp120 retained: 3794 counts

## DSDTYICEVEDQKEE
[2]
  COUNTS of radiolabeled gp120 retained: 973 counts

## AFQKASSIVYKKEGEQVEFSF
[7]
  COUNTS of radiolabeled gp120 retained: 3775 counts

## CEVEDQKEE
[8]
  COUNTS of radiolabeled gp120 retained: 555 counts

## ATQMTLGFFLPLLTMIVC [STRL33 segment 193-210]
[10]
  radioactive counts recorded in twenty minutes: 2365.5 counts
[11]
  radioactive counts recorded in twenty minutes: 2444.5 counts

## MDYQVSAPIYDINYYTSE
CCR5 (1-18) alanine variants
  Relative % of Control: 56 ± 2%

## AFTVEKLTGSGELWWQAERAS [human CD4 226-246]
[7]
  COUNTS of radiolabeled gp120 retained: 1739 counts
  number of radioactive decays (counts) counted: 3992 counts

## MDYAVSSPIYDINYYTSE [CCR5 (1-18) variant Q4A]
CCR5 (1-18) alanine variants
  Relative % of Control: 104 ± 7%
CCR5 alanine mutant peptide, radiolabeled HIV-1LAI gp120
  percentage of binding of mutant polypeptide compared to wild-type polypeptide, gp120: 104%

## VEFKIDIVVLAF
[9]
  COUNTS of radiolabeled gp120 retained: 681 counts

## GEAVEFSFPLAFTVE
[3]
  COUNTS of radiolabeled gp120 retained: 19756 counts and 17500 counts

## DLWVVVFQFQHIMVGLIL [CXCR4 segment 193-210]
[5]
  radioactive counts recorded in twenty minutes: 422 counts
[6]
  radioactive counts recorded in twenty minutes: 834 counts

## QKEEVQLLVFGL
[8]
  COUNTS of radiolabeled gp120 retained: 1785 counts

## TVLQNQKKVEFKIDI
[4]
  COUNTS of radiolabeled gp120 retained: 587 counts

## FLFWAPYNIVLLLNTFQE [CCR5 segment 245-]
[1]
  Counts per 20′ Average-background: 616 counts per 20′

## GNFPLIIKNLKI
[8]
  COUNTS of radiolabeled gp120 retained: 547 counts

## KRGGHSSVSTESESSSFH [CXCR4 segment 333-350]
[5]
  radioactive counts recorded in twenty minutes: 167 counts
[6]
  radioactive counts recorded in twenty minutes: 579 counts

## KKEGEQVEFSFPLAFTVE
[4]
  COUNTS of radiolabeled gp120 retained: 4683 counts

## YICEVEDQK
[8]
  COUNTS of radiolabeled gp120 retained: 728 counts

## YHEDYGFSSFNDSSQEEH
STRL33 amino terminus, 9-mer starting at the first residue of the printed sequence, background subtracted
  Binding Results For Window Length (counts bound-background), 9: 728 counts
STRL33 amino terminus, 12-mer starting at the first residue of the printed sequence, background subtracted
  Binding Results For Window Length (counts bound-background), 12: 1950 counts
STRL33 amino terminus, 15-mer starting at the first residue of the printed sequence, background subtracted
  Binding Results For Window Length (counts bound-background), 15: 1357 counts
STRL33 amino terminus, 18-mer starting at the first residue of the printed sequence, background subtracted
  Binding Results For Window Length (counts bound-background), 18: 985 counts

## VCYSVIIKTLLHAGGFQK [STRL33 segment 209-226]
[10]
  radioactive counts recorded in twenty minutes: 1334.5 counts
[11]
  radioactive counts recorded in twenty minutes: 1143.5 counts

## LVFGLTANS
[8]
  COUNTS of radiolabeled gp120 retained: 522 counts

## VVLAFQKASSIVYKKEGEQVE
[7]
  COUNTS of radiolabeled gp120 retained: 772 counts

## AVFALKARTVTFGVVTSV
[1]
  Counts per 20′ Average-background: 63 counts per 20′

## LPPLYSLVFIFGFVGNML [CCR5 segment 33-50]
[1]
  Counts per 20′ Average-background: 705 counts per 20′

## MEGASIYTSDNYTEEMGS
CXCR4 (1-18) alanine variants
  Relative % of Control: 6 ± 0.3%

## YAGIHEWVFGQVMCKSLL [STRL33 segment 89-106]
[10]
  radioactive counts recorded in twenty minutes: 5911.5 counts
[11]
  radioactive counts recorded in twenty minutes: 6245.5 counts

## IFANVSEADDRYICDRFY
[5]
  radioactive counts recorded in twenty minutes: 267 counts
[6]
  radioactive counts recorded in twenty minutes: 679 counts

## QVEFSFPLAFTV
[9]
  COUNTS of radiolabeled gp120 retained: 1636 counts

## VEFKIDIVVLAFQKASSI
[4]
  COUNTS of radiolabeled gp120 retained: 819 counts

## SFPLAFTVEKLTGSGELWWQA
[7]
  COUNTS of radiolabeled gp120 retained: 2284 counts

## EEVQLLVFGLTA
[8]
  COUNTS of radiolabeled gp120 retained: 3261 counts

## HEWVFGQVMCKSLLGIYT [STRL33 segment 93-110]
[10]
  radioactive counts recorded in twenty minutes: 3391.5 counts
[11]
  radioactive counts recorded in twenty minutes: 3466.5 counts

## VYKKEGEQV
[9]
  COUNTS of radiolabeled gp120 retained: 490 counts

## THALQGQSLTLTLES
[12]
  COUNTS of radiolabeled gp120 retained: 7683 counts and 5059 counts

## ANSDTHLLQ
[8]
  COUNTS of radiolabeled gp120 retained: 642 counts

## GSGDYDSMKEPCFREENA [CXCR4 segment 17-34]
[5]
  radioactive counts recorded in twenty minutes: −28 counts
[6]
  radioactive counts recorded in twenty minutes: 384 counts

## TVILILAFFACWLPYYIG
[5]
  radioactive counts recorded in twenty minutes: 323 counts
[6]
  radioactive counts recorded in twenty minutes: 735 counts

## STPVQPMALIVLGGVAGLLLF [human CD4 391-411]
  number of radioactive decays (counts) counted: 2527 counts

## KEGEQVEFSFPLAFT
[4]
  COUNTS of radiolabeled gp120 retained: 3253 counts

## IEDSDTYIC
[8]
  COUNTS of radiolabeled gp120 retained: 567 counts

## KNFWKLVKDIGCLPYLGV [STRL33 segment 297-314]
[10]
  radioactive counts recorded in twenty minutes: 143.5 counts
[11]
  radioactive counts recorded in twenty minutes: 82.5 counts

## LYAFLGAKFKTSAQHALT [CXCR4 segment 301-318]
[5]
  radioactive counts recorded in twenty minutes: 156 counts
[6]
  radioactive counts recorded in twenty minutes: 568 counts

## IDSFILLEIIKQGCEFEN [CXCR4 segment 261-278]
[5]
  radioactive counts recorded in twenty minutes: 3472 counts
[6]
  radioactive counts recorded in twenty minutes: 3884 counts

## AQNALTSVSRGSSLKILS [CXCR4 segment 313-330]
[5]
  radioactive counts recorded in twenty minutes: 147 counts
[6]
  radioactive counts recorded in twenty minutes: 559 counts

## GELWWQAERASSSKSWITFDL [human CD4 236-256]
  number of radioactive decays (counts) counted: 2730 counts

## LPTIYSIIFLTGIVGNGL [CXCR4 segment 41-58]
[5]
  radioactive counts recorded in twenty minutes: 118 counts
[6]
  radioactive counts recorded in twenty minutes: 530 counts

## TANSDTHLLQGQSLTLTL
[2]
  COUNTS of radiolabeled gp120 retained: 891 counts

## YGNVFNLDKLICGYHDEA
[10]
  radioactive counts recorded in twenty minutes: −41.5 counts
[11]
  radioactive counts recorded in twenty minutes: −20.5 counts

## LTANSDTHLLQGQSLTLT
[2]
  COUNTS of radiolabeled gp120 retained: 528 counts

## IIKNLKIEDSDT
[8]
  COUNTS of radiolabeled gp120 retained: 511 counts

## LAFQKASSIVYKKEGEQV
[4]
  COUNTS of radiolabeled gp120 retained: 665 counts

## FTVEKLTGSGELWWQAER
[4]
  COUNTS of radiolabeled gp120 retained: 1143 counts

## THLLQGQSLTLTLEA
[12]
  COUNTS of radiolabeled gp120 retained: 5849 counts and 7984 counts

## QRPRKLLAEKVVYVGVWI
[5]
  radioactive counts recorded in twenty minutes: 127 counts
[6]
  radioactive counts recorded in twenty minutes: 539 counts

## KNLKIEDSDTYI
[8]
  COUNTS of radiolabeled gp120 retained: 523 counts

## EDQKEEVQLLVFGLTANS
[2]
  COUNTS of radiolabeled gp120 retained: 3416 counts

## LQNQKKVEFKIDIVV
[4]
  COUNTS of radiolabeled gp120 retained: 644 counts

## THLLQGQSLTLALES
[12]
  COUNTS of radiolabeled gp120 retained: 11699 counts and 8147 counts

## EDSDTYICEVEDQKEEVQ
[2]
  COUNTS of radiolabeled gp120 retained: 788 counts

## YICEVEDQKEEV
[8]
  COUNTS of radiolabeled gp120 retained: 734 counts

## EKKTCQCPHRFQKTCSPI
  number of radioactive decays (counts) counted: 2006 counts

## SDTHLLQGQ
[8]
  COUNTS of radiolabeled gp120 retained: 526 counts

## YKKEGEQVE
[9]
  COUNTS of radiolabeled gp120 retained: 518 counts

## IVLLLNTFQEFFGLNNCS
[1]
  Counts per 20′ Average-background: 2134 counts per 20′

## GEQVEFSFPLAFTVEKLTGSG [human CD4 216-236]
[7]
  COUNTS of radiolabeled gp120 retained: 652 counts
  number of radioactive decays (counts) counted: 18549 counts

## IIKNLKIEDSDTYIC
[2]
  COUNTS of radiolabeled gp120 retained: 664 counts

## VCTLPFWAYAGIHEWVFG [STRL33 segment 81-98]
[10]
  radioactive counts recorded in twenty minutes: 1819.5 counts
[11]
  radioactive counts recorded in twenty minutes: 1754.5 counts

## PLAFTVEKLTGS
[9]
  COUNTS of radiolabeled gp120 retained: 528 counts

## VFGLTANSDTHLLQG
[2]
  COUNTS of radiolabeled gp120 retained: 532 counts

## GEQVEFAFPLAFTVE
[3]
  COUNTS of radiolabeled gp120 retained: 21681 counts and 20072 counts

## SIFQQEAPERASSVYTRS [CCR5 segment 325-]
[1]
  Counts per 20′ Average-background: 100 counts per 20′

## ENTVHKWISITEALAFFH [CXCR4 segment 277-294]
[5]
  radioactive counts recorded in twenty minutes: 315 counts
[6]
  radioactive counts recorded in twenty minutes: 727 counts

## DSDTYICEVEDQ
[8]
  COUNTS of radiolabeled gp120 retained: 937 counts

## EDQKEEVQLLVF
[8]
  COUNTS of radiolabeled gp120 retained: 1379 counts

## VYKKEGEQVEFSFPLAFTVEK [human CD4 211-231]
[7]
  COUNTS of radiolabeled gp120 retained: 2429 counts
  number of radioactive decays (counts) counted: 14740 counts

## VISLLVSLPQIIYGNVFN
[10]
  radioactive counts recorded in twenty minutes: −60.5 counts
[11]
  radioactive counts recorded in twenty minutes: −127.5 counts

## ALKTTVILILAFFACWLP [CXCR4 segment 237-254]
[5]
  radioactive counts recorded in twenty minutes: 261 counts
[6]
  radioactive counts recorded in twenty minutes: 673 counts

## EEVQLLVFG
[8]
  COUNTS of radiolabeled gp120 retained: 3170 counts

## THLLQGQSLALTLES
[12]
  COUNTS of radiolabeled gp120 retained: 8158 counts and 4749 counts

## MDYQVSSPIYDANYYTSE
CCR5 (1-18) alanine variants
  Relative % of Control: 14 ± 1%
